# Measured values published in patent US9833497B2, “Human originated EGF domain proteins and use of the same” (CHENGDU SOURCEBIO LIMITED-LIABILITY COMPANY, priority 2013, dated 2017).
# How the values were obtained:
# Assay type in all cases: cell-based
# E. coli DH5α = assay: Antibacterial activity: MIC and growth curve against E. coli DH5α in 96-well plate; conditions: minimal inhibitory concentration against E. coli DH5α; 96-well plate, 5×10^5 CFU/mL, 37° C., judged after 8 h
# Procedure, shortened: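 Log-phase bacteria (OD600 ~0.5) resuspended in LB at 5×10^5 CFU/mL, exposed to recombinant protein at 50, 25, 12.5 μg/mL final in triplicate, 37 °C shaking at 175 rpm. OD600 read every 30 min; MIC is lowest concentration showing no growth.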
# E. coli BL21 = assay: MIC against Gram-negative bacteria: E. coli BL21
# Procedure, shortened: (§1)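 Two-fold serial dilutions of each purified human EGF domain protein, three replicate wells per level, were combined with bacteria at a final 5×10^5 CFU/mL in LB. Cultures were shaken at 175 rpm, 37° C. The MIC was taken as the minimum concentration preventing growth.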
# Pseudomonas aeruginosa = assay: MIC against Gram-negative bacteria: Pseudomonas aeruginosa
# Procedure, shortened: as §1
# Klebsiella pneumonia = assay: MIC against Gram-negative bacteria: Klebsiella pneumonia
# Procedure, shortened: as §1
# Enterobacter cloacae = assay: MIC against Gram-negative bacteria: Enterobacter cloacae
# Procedure, shortened: as §1
# Aeromonas hydrophila = assay: MIC against Gram-negative bacteria: Aeromonas hydrophila
# Procedure, shortened: as §1
# Citrobacter diversus = assay: MIC against Gram-negative bacteria: Citrobacter diversus
# Procedure, shortened: as §1
# Moraxella catarrhalis = assay: MIC against Gram-negative bacteria: Moraxella catarrhalis
# Procedure, shortened: as §1
# Proteus mirabilis = assay: MIC against Gram-negative bacteria: Proteus mirabilis
# Procedure, shortened: as §1
# Proteus vulgaris = assay: MIC against Gram-negative bacteria: Proteus vulgaris
# Procedure, shortened: as §1
# Serratia marcescens = assay: MIC against Gram-negative bacteria: Serratia marcescens
# Procedure, shortened: as §1
# [1] = E. coli BL21, 96-well plate, 5×10^5 CFU/mL, 37° C., 10 h
# [2] = Pseudomonas aeruginosa, 96-well plate, 5×10^5 CFU/mL, 37° C., 10 h
# [3] = Klebsiella pneumonia, 96-well plate, 5×10^5 CFU/mL, 37° C., 10 h
# [4] = Enterobacter cloacae, 96-well plate, 5×10^5 CFU/mL, 37° C., 10 h
# [5] = Aeromonas hydrophila, 96-well plate, 5×10^5 CFU/mL, 37° C., 10 h
# [6] = Citrobacter diversus, 96-well plate, 5×10^5 CFU/mL, 37° C., 10 h
# [7] = Moraxella catarrhalis, 96-well plate, 5×10^5 CFU/mL, 37° C., 10 h
# [8] = Proteus mirabilis, 96-well plate, 5×10^5 CFU/mL, 37° C., 10 h
# [9] = Proteus vulgaris, 96-well plate, 5×10^5 CFU/mL, 37° C., 10 h
# [10] = Serratia marcescens, 96-well plate, 5×10^5 CFU/mL, 37° C., 10 h
# [11] = 96-well plate, 5×10^5 CFU/mL, 37° C., 10 h
# [12] = E. coli BL21, 10 h cultivation at 37° C., 5×10^5 CFU/mL
# [13] = P. aeruginosa, 10 h cultivation at 37° C., 5×10^5 CFU/mL
# [14] = K. pneumonia, 10 h cultivation at 37° C., 5×10^5 CFU/mL
# [15] = E. cloacae, 10 h cultivation at 37° C., 5×10^5 CFU/mL
# [16] = A. hydrophila, 10 h cultivation at 37° C., 5×10^5 CFU/mL
# [17] = C. diversus, 10 h cultivation at 37° C., 5×10^5 CFU/mL
# [18] = M. catarrhalis, 10 h cultivation at 37° C., 5×10^5 CFU/mL
# [19] = P. mirabilis, 10 h cultivation at 37° C., 5×10^5 CFU/mL
# [20] = P. vulgaris, 10 h cultivation at 37° C., 5×10^5 CFU/mL
# [21] = S. marcescens, 10 h cultivation at 37° C., 5×10^5 CFU/mL
substance,measurement,setting,value
PRT1207 (DIDECSDGFVQCDSRANCINLPGWYHCECRDGYHDNGMFSPSGESCE; listed as Homo sapiens),MIC,E. coli DH5α,12.5 µg/mL
same,MIC against E. coli BL21,E. coli BL21; [1],25 µg/mL
same,MIC against P. aeruginosa,Pseudomonas aeruginosa; [2],12.5 µg/mL
same,MIC against K. pneumonia,Klebsiella pneumonia; [3],12.5 µg/mL
same,MIC against E. cloacae,Enterobacter cloacae; [4],25 µg/mL
same,MIC against A. hydrophila,Aeromonas hydrophila; [5],25 µg/mL
same,MIC against C. diversus,Citrobacter diversus; [6],12.5 µg/mL
same,MIC against M. catarrhalis,Moraxella catarrhalis; [7],25 µg/mL
same,MIC against P. mirabilis,Proteus mirabilis; [8],25 µg/mL
same,MIC against P. vulgaris,Proteus vulgaris; [9],12.5 µg/mL
same,MIC against S. marcescens,Serratia marcescens; [10],12.5 µg/mL
PRT658 (DVNECELMLAVCGAALCENVEGSFLCLCASDLEEYDAQEGHCR; listed as Homo sapiens),MIC,E. coli DH5α,12.5 µg/mL
same,MIC E. coli BL21,E. coli BL21; [11],25 µg/mL
same,MIC P. aeruginosa,Pseudomonas aeruginosa; [11],50 µg/mL
same,MIC K. pneumonia,Klebsiella pneumonia; [11],25 µg/mL
same,MIC E. cloacae,Enterobacter cloacae; [11],12.5 µg/mL
same,MIC A. hydrophila,Aeromonas hydrophila; [11],25 µg/mL
same,MIC C. diversus,Citrobacter diversus; [11],50 µg/mL
same,MIC M. catarrhalis,Moraxella catarrhalis; [11],12.5 µg/mL
same,MIC P. mirabilis,Proteus mirabilis; [11],25 µg/mL
same,MIC P. vulgaris,Proteus vulgaris; [11],50 µg/mL
same,MIC S. marcescens,Serratia marcescens; [11],12.5 µg/mL
PRT449 (FLCRCHQGYELHRDGFSCSDIDE; listed as Homo sapiens),MIC,E. coli DH5α,50 µg/mL
same,MIC against E. coli BL21,E. coli BL21; [11],12.5 µg/mL
same,MIC against P. aeruginosa,Pseudomonas aeruginosa; [11],50 µg/mL
same,MIC against K. pneumonia,Klebsiella pneumonia; [11],12.5 µg/mL
same,MIC against E. cloacae,Enterobacter cloacae; [11],50 µg/mL
same,MIC against A. hydrophila,Aeromonas hydrophila; [11],25 µg/mL
same,MIC against C. diversus,Citrobacter diversus; [11],12.5 µg/mL
same,MIC against M. catarrhalis,Moraxella catarrhalis; [11],25 µg/mL
same,MIC against P. mirabilis,Proteus mirabilis; [11],50 µg/mL
same,MIC against P. vulgaris,Proteus vulgaris; [11],12.5 µg/mL
same,MIC against S. marcescens,Serratia marcescens; [11],50 µg/mL
PRT941 (EINECSSHPCLNEGTCVDGLGTYRCSCPLGYTGKNCQ; listed as Homo sapiens),MIC,E. coli DH5α,25 µg/mL
same,MIC,"E. coli BL21; E. coli BL21, 10 h cultivation at 37° C.",50 µg/mL
same,MIC,"Pseudomonas aeruginosa; P. aeruginosa, 10 h cultivation at 37° C.",12.5 µg/mL
same,MIC,"Klebsiella pneumonia; K. pneumonia, 10 h cultivation at 37° C.",50 µg/mL
same,MIC,"Enterobacter cloacae; E. cloacae, 10 h cultivation at 37° C.",12.5 µg/mL
same,MIC,"Aeromonas hydrophila; A. hydrophila, 10 h cultivation at 37° C.",50 µg/mL
same,MIC,"Citrobacter diversus; C. diversus, 10 h cultivation at 37° C.",12.5 µg/mL
same,MIC,"Moraxella catarrhalis; M. catarrhalis, 10 h cultivation at 37° C.",50 µg/mL
same,MIC,"Proteus mirabilis; P. mirabilis, 10 h cultivation at 37° C.",12.5 µg/mL
same,MIC,"Proteus vulgaris; P. vulgaris, 10 h cultivation at 37° C.",50 µg/mL
same,MIC,"Serratia marcescens; S. marcescens, 10 h cultivation at 37° C.",12.5 µg/mL
PRT1315 (FGPDCQSVCSCVHGVCNHGPRGDGSCLCFAGYTGPHCD; listed as Homo sapiens),MIC,E. coli DH5α,25 µg/mL
same,MIC against E. coli BL21,E. coli BL21; [1],12.5 µg/mL
same,MIC against P. aeruginosa,Pseudomonas aeruginosa; [2],12.5 µg/mL
same,MIC against K. pneumonia,Klebsiella pneumonia; [3],100 µg/mL
same,MIC against E. cloacae,Enterobacter cloacae; [4],25 µg/mL
same,MIC against A. hydrophila,Aeromonas hydrophila; [5],12.5 µg/mL
same,MIC against C. diversus,Citrobacter diversus; [6],12.5 µg/mL
same,MIC against M. catarrhalis,Moraxella catarrhalis; [7],50 µg/mL
same,MIC against P. mirabilis,Proteus mirabilis; [8],12.5 µg/mL
same,MIC against P. vulgaris,Proteus vulgaris; [9],50 µg/mL
same,MIC against S. marcescens,Serratia marcescens; [10],12.5 µg/mL
PRT794 (SSRCGCKNDAVCSPVDGSCTCKAGWHGVDCS; listed as Homo sapiens),MIC,E. coli DH5α,50 µg/mL
same,MIC (μg/mL) E. coli BL21,E. coli BL21; [12],12.5 µg/mL
same,MIC (μg/mL) P. aeruginosa,Pseudomonas aeruginosa; [13],50 µg/mL
same,MIC (μg/mL) K. pneumonia,Klebsiella pneumonia; [14],12.5 µg/mL
same,MIC (μg/mL) E. cloacae,Enterobacter cloacae; [15],25 µg/mL
same,MIC (μg/mL) A. hydrophila,Aeromonas hydrophila; [16],50 µg/mL
same,MIC (μg/mL) C. diversus,Citrobacter diversus; [17],25 µg/mL
same,MIC (μg/mL) M. catarrhalis,Moraxella catarrhalis; [18],12.5 µg/mL
same,MIC (μg/mL) P. mirabilis,Proteus mirabilis; [19],25 µg/mL
same,MIC (μg/mL) P. vulgaris,Proteus vulgaris; [20],50 µg/mL
same,MIC (μg/mL) S. marcescens,Serratia marcescens; [21],12.5 µg/mL
PRT797 (WGPNCSVSCSCENGGSCSPEDGSCECAPGFRGPLCQ; listed as Homo sapiens),MIC,E. coli DH5α,50 µg/mL
same,MIC (μg/mL) E. coli BL21,E. coli BL21; [12],12.5 µg/mL
same,MIC (μg/mL) P. aeruginosa,Pseudomonas aeruginosa; [13],50 µg/mL
same,MIC (μg/mL) K. pneumonia,Klebsiella pneumonia; [14],25 µg/mL
same,MIC (μg/mL) E. cloacae,Enterobacter cloacae; [15],50 µg/mL
same,MIC (μg/mL) A. hydrophila,Aeromonas hydrophila; [16],12.5 µg/mL
same,MIC (μg/mL) C. diversus,Citrobacter diversus; [17],50 µg/mL
same,MIC (μg/mL) M. catarrhalis,Moraxella catarrhalis; [18],12.5 µg/mL
same,MIC (μg/mL) P. mirabilis,Proteus mirabilis; [19],12.5 µg/mL
same,MIC (μg/mL) P. vulgaris,Proteus vulgaris; [20],12.5 µg/mL
same,MIC (μg/mL) S. marcescens,Serratia marcescens; [21],12.5 µg/mL
